Where “and” joins values, the source holds several entries; their conditions need not be identical. Equal values may be shown once.
Tests used:
MCF-7 cells = assay: Cell cycle analysis; type: cell-based; conditions: 24 h treatment
Description: (§1) After treatment, cells were collected, washed twice with ice-cold PBS, and fixed overnight with 70% precooled (−20° C.) ethanol. Fixed cells were resuspended in PBS containing 0.02 mg/mL RNase A (Roche, USA) and incubated at 37° C. for 15 min. Next, the cells were stained with 0.01 mg/mL propidium iodide (Sigma) in the dark at room temperature for 10 min. The DNA content was analyzed by flow cytometry using a FACSCalibur (Becton Dickinson, Sunnyvale, Calif.) with Cellquest and Modfit LT3.0 software (Becton Dickinson) (FIGS. 1D & 2A).

HCT 116 cells = assay: Cell cycle analysis; type: cell-based; conditions: 24 h treatment
Description: as §1

HT 29 cells = assay: Cell cycle analysis; type: cell-based; conditions: 24 h treatment
Description: as §1

CA 46 cells = assay: BrdU incorporation; type: cell-based, human
Description: (§2) A number of cells (5×10^5) were pulse-labeled with 50 μmol/L BrdU (Calbiochem, La Jolla, Calif.) for 30 minutes. Cells were collected, fixed in 70% ethanol at 4° C., washed with PBS, resuspended in 3 mL 2 mol/L HCl/0.5% Triton X-100, and left at room temperature for 30 minutes. Cells were spun down after adding 6 mL 0.1 M sodium borate (pH 8.5). Pellets were washed with PBS/0.5% Tween-20 twice, then resuspended in 15 μL FITC-conjuncted anti-BrdU antibody (Becton Dickinson, Franklin Lakes, N.J.). After incubation with the anti-BrdU antibody at room temperature for 60 minutes, pellets were washed once with PBS, and resuspended in 500 μL of PI solution (50 μg/mL PI and 50 μg/mL RNase). Analyses were done with a FACScan flow cytometer (Becton Dickinson, San Jose, Calif.) (FIG. 2B).

MDA-MB-231 cells [1] = assay: BrdU incorporation; type: cell-based, human
Description: as §2

MDA-MB-231 cells [2] = assay: Transwell migration assay; type: cell-based, human; conditions: 6 h
Description: The effect of Lasonolide A on the migration of breast cancer MDA-MB-231 cells was determined in a transwell Boyden Chamber (Costar, Mass.) using a polycarbonate filter with a pore size of […], which was coated with 0.2% gelatin, balancing with gelatin at 37° C. for 1 h, then removal of the gelatin and covering with DMEM without serum overnight at 37° C. In the standard assay, after removing medium, 0.1 mL of cell suspension (1×10^5 cells/ml, in serum-free medium) with Lasonolide A or 0.1% DMSO (v/v) was added to the upper compartment of the chamber. The lower compartment contained 0.6 mL of DMEM medium supplemented with 20% serum. After incubation for 6 h at 37° C., the filter was removed and fixed with ethanol. Cells remaining on the upper surface of the filter (non-migrated) were scraped gently. Then, migrated cells on the lower surface of the filter were stained with 0.1% crystal violet and taken photographs under microscope (FIG. 6C).

[3] = system: breast cancer MDA-MB-231 cells; assay: PCC induction and PI staining; type: cell-based, human; conditions: 1 h
Description: (§3) Burkitt's Lymphoma CA46 cells (500,000) (FIG. 1B) or breast cancer MDA-MB-231 cells (500,000) (FIG. 1A) were treated by 100 nM Lasonolide A (stock solution 100 μM in DMSO) for 1 h. Lymphocytes were treated with 200 nM Lasonolide A for 1 h. Cells were harvested with centrifuging on 2,000 rpm for 5 min at 4° C. Pellets were washed once by PBS and re-suspended in 1 mL PBS. 200 μL cells mixture were added to the chamber for cytospining. Cells were cytospun on 800 rpm for 10 min; slides were fixed in fresh-made 4% paraformaldehyde fixation for 20 min at room temperature, then moved to 70% ethanol for 20 min. Slides were stained with Propidium Iodide (“PI”) (20 μg/mL) and RNase A (100 μg/mL) for 15 min. Slides were washed with PBS for three times and mounted with Vectashield anti-fade mounting media (Vector Laboratories, Inc., Burlingame, Calif.). Images were taken using a Nikon Eclipse TE-300 confocal microscope.

[4] = system: Burkitt's Lymphoma CA46 cells; assay: PCC induction and PI staining; type: cell-based, human; conditions: 1 h
Description: as §3

chromatin condensation = assay: DNase I sensitivity assay; type: cell-based; conditions: 1 h
Description: Cells were treated with different concentrations of Lasonolide A for 1 h and were collected with centrifuging. The centrifuged cells were washed with PBS and fixed with 1.5% PFA for 15 min on ice. After washing by PBS, fresh PBS was added (300 μL) to re-suspend the pellet, then 700 μL 70% EtOH was gently added and the mixture was maintained at −20° C. overnight. The solution was washed by PBS once, then washed by 1× DNase I reaction buffer (500 μL), then incubated in 200 μL Reaction buffer with 4 Units DNase I (2 μL), 37° C., 10 min. The solution was washed by PBS and incubated in 100 μL Polymerase reaction buffer including 16 μM dATP, 16 μM dCTP, 16 μM dGTP, 16 μM dUTP-FITC, 100 unit/mL Polymerase I, 37° C. 60 min. FL1 channel of Green fluorescence signal were measured with flow cytometer (FIG. 1C).

PP2A = target: T1, PP2A (Homo sapiens, UniProt P67775); assay: In vitro phosphatase activity assay; type: biochemical; conditions: compared with Okadaic Acid
T1 construct: purchased Upstate
T1 sequence (P67775 whole entry): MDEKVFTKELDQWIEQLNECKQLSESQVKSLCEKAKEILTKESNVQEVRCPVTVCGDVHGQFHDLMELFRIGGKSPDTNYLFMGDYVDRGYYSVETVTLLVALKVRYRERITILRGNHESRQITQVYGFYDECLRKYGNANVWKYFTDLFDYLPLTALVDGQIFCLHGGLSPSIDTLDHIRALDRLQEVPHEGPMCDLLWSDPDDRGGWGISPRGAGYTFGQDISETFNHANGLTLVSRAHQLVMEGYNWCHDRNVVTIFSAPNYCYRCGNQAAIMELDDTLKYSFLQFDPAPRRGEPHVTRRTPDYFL
T1 sequence (P30153 2-589 partner limits assumed): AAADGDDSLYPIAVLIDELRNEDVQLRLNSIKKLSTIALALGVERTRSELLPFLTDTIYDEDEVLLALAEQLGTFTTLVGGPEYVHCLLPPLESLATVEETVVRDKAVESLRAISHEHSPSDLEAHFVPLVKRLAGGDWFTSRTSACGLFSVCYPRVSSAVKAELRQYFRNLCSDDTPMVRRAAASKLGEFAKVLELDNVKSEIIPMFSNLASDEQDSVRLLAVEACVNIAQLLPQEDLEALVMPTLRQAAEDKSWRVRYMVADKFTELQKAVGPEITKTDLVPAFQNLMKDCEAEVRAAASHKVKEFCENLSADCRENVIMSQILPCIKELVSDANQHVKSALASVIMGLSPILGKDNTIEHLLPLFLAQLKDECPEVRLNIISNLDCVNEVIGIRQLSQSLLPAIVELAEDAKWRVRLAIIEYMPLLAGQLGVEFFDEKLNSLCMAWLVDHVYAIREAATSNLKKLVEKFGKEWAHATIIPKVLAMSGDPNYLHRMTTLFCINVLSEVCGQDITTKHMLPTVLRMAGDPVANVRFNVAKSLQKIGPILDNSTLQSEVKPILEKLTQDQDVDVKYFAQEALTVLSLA
Description: (§4) The inhibitory effect of active agents on PP2A or PP1 enzyme activity was determined by measuring the generation of free PO4 from the phosphopeptide RRA(pT)VA, using the molybdate-malachite green-phosphate complex assay. The phosphatase assay was performed in a PP2A-specific reaction buffer [50 mM imidazole (pH 7.2), 0.2 mM EGTA, 0.02% 2-mercaptoethanol, 0.1 mg/mL of bovine serum albumin] using 10 μ/M phosphopeptide substrate and 0.03 Units PP2A (Upstate), or in PP1-specific reaction buffer [50 mM HEPES, 2 mM Dithiothreitol, 0.025% Tween-20, 0.1 mM EGT 100 mM NaCl] together with 100 μM phosphopeptide substrate and 0.03 Units PP1 (Biolabs). Different concentrations of active agents were added in the reaction system. After a 20-min incubation at 30° C., molybdate dye was added, and the amount of free phosphate generated was determined from the optical density at 630 nm (VERSAmax, Molecular Device), using a standard curve for free phosphate. Phosphatase activity was defined as picomoles of free PO4 generated per minute per microgram of protein, and phosphatase activity without drug was defined as 100% (FIGS. 3C & 3D).

PP1 = target: T2, PP1 (Oryctolagus cuniculus, UniProt P62139); assay: In vitro phosphatase activity assay; type: biochemical; conditions: compared with Okadaic Acid
T2 construct: purchased Biolabs
T2 sequence (P62139 whole entry): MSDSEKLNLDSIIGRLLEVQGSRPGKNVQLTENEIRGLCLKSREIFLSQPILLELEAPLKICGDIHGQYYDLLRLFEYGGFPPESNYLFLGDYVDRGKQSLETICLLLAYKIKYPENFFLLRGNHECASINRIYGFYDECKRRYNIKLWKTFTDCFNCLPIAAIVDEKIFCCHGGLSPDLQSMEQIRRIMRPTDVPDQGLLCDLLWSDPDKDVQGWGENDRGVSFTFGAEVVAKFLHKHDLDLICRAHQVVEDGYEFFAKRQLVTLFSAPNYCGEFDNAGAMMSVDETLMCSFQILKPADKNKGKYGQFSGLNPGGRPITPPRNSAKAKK
Description: as §4

human lymphocytes = assay: PCC induction and PI staining; type: cell-based; conditions: 200 nM Lasonolide A, without additional reagents

For `C=C(CCC(C)C)COC(=O)[C@H](O)C/C=C\C[C@@H]1O[C@@H]2/C=C/C/C=C/C(C)=C\[C@H]3O[C@@H](C/C=C/C=C/C(=O)O[C@H](C2)[C@@]1(C)CO)C[C@H](O)[C@H]3C` [Lasonolide A], the cell cycle arrest (MCF-7 cells) was “G2/M phase arrest”, the cell cycle arrest (HCT 116 cells) was “G2/M phase arrest” and the cell cycle arrest (HT 29 cells) was “G2/M phase arrest”. The “DNA replication (BrdU incorporation)” value (CA 46 cells) was “decelerated DNA replication”, the “DNA replication (BrdU incorporation)” value (MDA-MB-231 cells [1]) was “decelerated DNA replication” and the cell migration (MDA-MB-231 cells [2]) was “inhibited migration”. For the same compound, the “PCC induction (in words)” value ([3]; 100 nM) was “induced premature chromosome condensation (PCC)”, the “cells with PCC” value [3] was 13% and the “cells with premature chromosome condensation (PCC)” value ([4]; 100 nM Lasonolide A) was 97.9% and 99.5%. For the same compound, the “PCC induction (in words)” value ([4]; 100 nM) was “induced premature chromosome condensation (PCC)”, the “DNase I sensitivity, fluorescence shift” value (chromatin condensation; 100 nM) was “evidence of an effect” and the “DNase I sensitivity, fluorescence shift” value (chromatin condensation; 200 nM) was “a greater change, affecting signal amplitude”. For the same compound, the “inhibitory effect on PP2A” value (PP2A) was “weaker inhibitory effect”, the “inhibitory effect on PP1” value (PP1) was “weaker inhibitory effect” and the “lymphocytes going to PCC” value (human lymphocytes) was 35.5%.

From patent publication US8278100B2, “Lasonolide compounds as reagents for inducing premature chromosome condensation and methods for treating disorders” (The United States of America, as Represented by the …, priority 2008, dated 2012)
